According to US10308639B2, “Phosphatidylinositol 3-kinase inhibitors” (Gilead Sciences, Inc., priority 2014, dated 2019):
Where two headings read alike, the source gives them in different places.

Key:
Type in all cases: biochemical
PI3Kβ = target: T1, PI3Kβ (Homo sapiens, UniProt P42338); assay: TR-FRET enzymatic activity assay, PI3Kβ
T1 construct: made in house

PI3Kδ = target: T2, PI3Kδ (Homo sapiens, UniProt O00329); assay: TR-FRET enzymatic activity assay, PI3Kδ
T2 construct: made in house

PI3Kγ = target: T3, PI3Kγ (Homo sapiens, UniProt P48736); assay: TR-FRET enzymatic activity assay, PI3Kγ; conditions: read-out: PI3Kγ IC50
T3 construct: made in house
T3 sequence (P48736 whole entry): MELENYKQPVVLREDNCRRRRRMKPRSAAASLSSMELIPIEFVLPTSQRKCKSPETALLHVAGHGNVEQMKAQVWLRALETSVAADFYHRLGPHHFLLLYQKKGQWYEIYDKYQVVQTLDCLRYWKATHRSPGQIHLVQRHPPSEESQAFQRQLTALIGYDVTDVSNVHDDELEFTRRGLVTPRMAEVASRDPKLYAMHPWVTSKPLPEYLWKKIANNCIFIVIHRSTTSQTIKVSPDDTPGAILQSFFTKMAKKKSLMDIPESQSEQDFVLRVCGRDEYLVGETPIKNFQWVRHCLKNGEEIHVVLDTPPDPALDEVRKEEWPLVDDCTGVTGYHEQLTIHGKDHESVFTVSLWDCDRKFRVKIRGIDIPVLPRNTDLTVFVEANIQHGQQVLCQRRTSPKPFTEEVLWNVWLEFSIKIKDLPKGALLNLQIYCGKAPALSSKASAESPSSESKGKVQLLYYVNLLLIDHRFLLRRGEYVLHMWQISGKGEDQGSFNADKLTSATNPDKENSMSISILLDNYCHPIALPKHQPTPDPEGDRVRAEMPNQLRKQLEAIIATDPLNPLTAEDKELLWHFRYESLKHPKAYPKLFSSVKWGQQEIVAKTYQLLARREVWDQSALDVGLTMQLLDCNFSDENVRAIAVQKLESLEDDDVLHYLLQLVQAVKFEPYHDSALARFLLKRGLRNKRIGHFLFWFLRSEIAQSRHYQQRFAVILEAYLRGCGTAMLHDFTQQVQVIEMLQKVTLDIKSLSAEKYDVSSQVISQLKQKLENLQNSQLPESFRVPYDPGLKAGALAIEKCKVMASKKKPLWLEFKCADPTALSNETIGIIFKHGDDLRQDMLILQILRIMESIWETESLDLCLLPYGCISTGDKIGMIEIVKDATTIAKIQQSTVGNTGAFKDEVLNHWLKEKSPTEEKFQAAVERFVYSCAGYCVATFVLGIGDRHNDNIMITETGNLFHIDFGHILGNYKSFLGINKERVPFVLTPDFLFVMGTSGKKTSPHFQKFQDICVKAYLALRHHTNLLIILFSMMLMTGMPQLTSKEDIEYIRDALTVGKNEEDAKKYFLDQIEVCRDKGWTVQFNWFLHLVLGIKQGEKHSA
Procedure, shortened: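 Activity measured by time-resolved FRET; each isoform tested in its own enzymatic reaction.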

[1] = Table 2, TR-FRET, 2x Km ATP, 30 minutes at 25° C.

T1 sequence (P42338 whole entry): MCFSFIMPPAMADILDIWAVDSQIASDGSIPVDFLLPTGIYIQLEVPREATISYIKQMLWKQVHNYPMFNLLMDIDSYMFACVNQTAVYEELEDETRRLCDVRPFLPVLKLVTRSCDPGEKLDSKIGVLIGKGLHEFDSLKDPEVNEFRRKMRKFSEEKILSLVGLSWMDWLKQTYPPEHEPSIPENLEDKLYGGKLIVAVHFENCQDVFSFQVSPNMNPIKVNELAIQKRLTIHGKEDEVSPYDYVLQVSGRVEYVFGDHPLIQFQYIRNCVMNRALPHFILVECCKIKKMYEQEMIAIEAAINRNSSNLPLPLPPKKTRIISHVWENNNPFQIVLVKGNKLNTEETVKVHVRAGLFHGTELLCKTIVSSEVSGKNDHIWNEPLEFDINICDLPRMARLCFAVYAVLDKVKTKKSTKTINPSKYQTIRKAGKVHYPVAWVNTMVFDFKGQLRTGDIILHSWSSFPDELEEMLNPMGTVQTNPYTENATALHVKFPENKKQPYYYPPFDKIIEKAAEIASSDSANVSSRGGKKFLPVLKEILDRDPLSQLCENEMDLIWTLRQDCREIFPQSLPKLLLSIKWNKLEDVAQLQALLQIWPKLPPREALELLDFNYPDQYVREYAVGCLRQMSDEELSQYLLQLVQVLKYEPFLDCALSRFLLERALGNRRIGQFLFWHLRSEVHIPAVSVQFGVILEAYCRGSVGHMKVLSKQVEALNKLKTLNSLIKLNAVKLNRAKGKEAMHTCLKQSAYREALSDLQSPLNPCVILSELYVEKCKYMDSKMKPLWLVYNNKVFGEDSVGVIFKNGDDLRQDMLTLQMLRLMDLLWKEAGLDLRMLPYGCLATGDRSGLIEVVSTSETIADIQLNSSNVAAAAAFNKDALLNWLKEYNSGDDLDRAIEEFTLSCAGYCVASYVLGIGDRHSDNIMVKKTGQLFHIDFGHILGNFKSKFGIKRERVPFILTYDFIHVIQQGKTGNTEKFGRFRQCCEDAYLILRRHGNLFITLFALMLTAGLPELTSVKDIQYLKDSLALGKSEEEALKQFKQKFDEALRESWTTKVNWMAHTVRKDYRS
T1 sequence (P27986 whole entry partner): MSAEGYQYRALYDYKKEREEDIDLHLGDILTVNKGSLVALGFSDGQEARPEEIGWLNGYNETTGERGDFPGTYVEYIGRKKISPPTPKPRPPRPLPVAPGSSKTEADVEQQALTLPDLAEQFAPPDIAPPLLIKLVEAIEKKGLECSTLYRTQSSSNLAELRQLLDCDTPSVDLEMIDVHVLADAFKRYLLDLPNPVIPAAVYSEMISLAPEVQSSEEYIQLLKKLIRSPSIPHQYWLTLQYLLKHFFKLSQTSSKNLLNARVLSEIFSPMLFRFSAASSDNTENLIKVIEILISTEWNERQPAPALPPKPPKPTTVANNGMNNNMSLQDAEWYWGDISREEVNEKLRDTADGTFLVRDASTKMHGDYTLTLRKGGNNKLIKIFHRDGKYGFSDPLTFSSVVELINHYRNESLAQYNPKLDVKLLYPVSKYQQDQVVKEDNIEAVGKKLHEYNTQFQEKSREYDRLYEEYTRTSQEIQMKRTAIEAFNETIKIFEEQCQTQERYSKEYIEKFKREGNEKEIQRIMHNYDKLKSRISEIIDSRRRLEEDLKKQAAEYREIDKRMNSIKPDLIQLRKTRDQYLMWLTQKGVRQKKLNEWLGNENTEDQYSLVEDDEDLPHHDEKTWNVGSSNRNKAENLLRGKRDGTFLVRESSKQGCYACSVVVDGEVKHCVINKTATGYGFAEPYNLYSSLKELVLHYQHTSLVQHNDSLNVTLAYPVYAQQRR
T2 sequence (O00329 whole entry): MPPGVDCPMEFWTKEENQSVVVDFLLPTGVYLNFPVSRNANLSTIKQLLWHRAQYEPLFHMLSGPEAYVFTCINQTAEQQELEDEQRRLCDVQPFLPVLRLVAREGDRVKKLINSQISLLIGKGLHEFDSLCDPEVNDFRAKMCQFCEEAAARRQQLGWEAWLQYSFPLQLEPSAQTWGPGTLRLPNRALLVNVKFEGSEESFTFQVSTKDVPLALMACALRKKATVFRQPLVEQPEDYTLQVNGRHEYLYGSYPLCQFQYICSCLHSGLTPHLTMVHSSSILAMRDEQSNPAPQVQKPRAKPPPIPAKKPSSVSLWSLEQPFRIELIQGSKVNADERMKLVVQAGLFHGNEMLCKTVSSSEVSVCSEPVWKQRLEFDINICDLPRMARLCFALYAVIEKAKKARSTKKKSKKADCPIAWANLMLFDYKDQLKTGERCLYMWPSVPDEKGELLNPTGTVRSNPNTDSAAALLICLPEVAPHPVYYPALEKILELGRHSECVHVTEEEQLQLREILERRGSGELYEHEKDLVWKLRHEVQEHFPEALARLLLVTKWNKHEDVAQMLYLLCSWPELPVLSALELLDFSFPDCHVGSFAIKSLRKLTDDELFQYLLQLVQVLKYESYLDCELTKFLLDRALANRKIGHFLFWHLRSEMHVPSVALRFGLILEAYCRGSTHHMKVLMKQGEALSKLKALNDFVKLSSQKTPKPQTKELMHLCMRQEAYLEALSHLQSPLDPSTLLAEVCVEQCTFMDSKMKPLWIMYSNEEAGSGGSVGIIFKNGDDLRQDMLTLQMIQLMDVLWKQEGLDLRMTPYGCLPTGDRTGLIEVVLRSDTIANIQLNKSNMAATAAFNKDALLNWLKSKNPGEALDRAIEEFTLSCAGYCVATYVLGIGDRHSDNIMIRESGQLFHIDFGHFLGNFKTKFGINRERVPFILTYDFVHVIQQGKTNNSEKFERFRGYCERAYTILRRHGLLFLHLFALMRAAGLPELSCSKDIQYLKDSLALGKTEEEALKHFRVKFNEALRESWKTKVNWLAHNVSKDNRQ
T2 sequence (P27986 whole entry partner): as the sequence (P27986 whole entry partner) above

Row | Compound | IC50 (PI3Kβ; Table 2a, same assay) [nM] | IC50 (PI3Kδ; Table 2a, same assay) [nM] | IC50 (PI3Kγ; Table 2a, same assay) [nM] | IC50 (PI3Kβ; [1]) [nM] | IC50 (PI3Kδ; [1]) [nM] | IC50 (PI3Kγ; [1]) [nM] | IC50 (PI3Kγ) [nM]
1 | C[C@H](Nc1nc(N)nc(N)c1C#N)c1nc2c(F)cc(F)cc2c(=O)n1-c1cc[nH]n1 [Compound 169, (S)-2,4-diamino-6-((1-(6,8-difluoro-4-oxo-3-(1H-pyrazol-3-yl)-3,4-dihydroquinazolin-2-yl)ethyl)amino)pyrimidine-5-carbonitrile] | 1 | 0.6 | 260 | – | – | – | –
2 | C[C@H](Nc1nc(N)nc(N)c1C#N)c1nc2cc(Cl)ccc2c(=O)n1-c1cc[nH]n1 [Compound 139] | 33 | 21 | > 10000 | – | – | – | –
3 | O=c1c2c(Cl)cccc2nc([C@H](COCc2ccccc2)Nc2ncnc3scnc23)n1-c1cn[nH]c1 [Compound 47, (R)-2-(2-(benzyloxy)-1-(thiazolo[5,4-d]pyrimidin-7-ylamino)ethyl)-5-chloro-3-(1H-pyrazol-4-yl)quinazolin-4(3H)-one] | – | – | – | 11 | 11 | 2400 | –
4 | Nc1nc(N)c(Cl)c(N[C@H](c2nc3cccc(Cl)c3c(=O)n2-c2cn[nH]c2)C2CC2)n1 [Compound 19, (S)-5-chloro-2-(cyclopropyl((2,6-diamino-5-chloropyrimidin-4-yl)amino)methyl)-3-(1H-pyrazol-4-yl)quinazolin-4(3H)-one] | – | – | – | 32 | 6 | 1700 | –
5 | C[C@H](Nc1nc(N)nc(N)c1C#N)c1nc2c(Cl)cc(F)cc2c(=O)n1-c1cn[nH]c1 [Compound 266, (S)-2,4-diamino-6-((1-(8-chloro-6-fluoro-4-oxo-3-(1H-pyrazol-4-yl)-3,4-dihydroquinazolin-2-yl)ethyl)amino)pyrimidine-5-carbonitrile] | 4 | 1 | 84 | – | – | – | –
6 | C[C@H](Nc1ncnc(N)c1Cl)c1nc2cccc(Cl)c2c(=O)n1-c1cc[nH]n1 [Compound 164, (S)-2-(1-((6-amino-5-chloropyrimidin-4-yl)amino)ethyl)-5-chloro-3-(1H-pyrazol-3-yl)quinazolin-4(3H)-one] | 3 | 0.6 | 4300 | – | – | – | –
7 | CC[C@H](Nc1nc(N)nc(N)c1Cl)c1nc2c(C#N)cccc2c(=O)n1-c1cc[nH]n1 [Compound 78, (S)-2-(1-((2,6-diamino-5-chloropyrimidin-4-yl)amino)propyl)-4-oxo-3-(1H-pyrazol-3-yl)-3,4-dihydroquinazoline-8-carbonitrile] | – | – | – | 190 | 53 | – | > 10000
8 | O=c1c2c(Cl)cccc2nc([C@H](CO)Nc2ncnc3scnc23)n1-c1cn[nH]c1 [Compound 50, (R)-5-chloro-2-(2-hydroxy-1-(thiazolo[5,4-d]pyrimidin-7-ylamino)ethyl)-3-(1H-pyrazol-4-yl)quinazolin-4(3H)-one] | – | – | – | 47 | 7 | 1800 | –
9 | CCC[C@H](Nc1nc(N)nc(N)c1Cl)c1nc2c(Cl)ccc(Cl)c2c(=O)n1-c1cn[nH]c1 [Compound 252, (S)-5,8-dichloro-2-(1-((2,6-diamino-5-chloropyrimidin-4-yl)amino)butyl)-3-(1H-pyrazol-4-yl)quinazolin-4(3H)-one] | 920 | 75 | > 10000 | – | – | – | –
10 | C[C@H](Nc1nc(N)nc(N)c1C#N)c1nc2ccc(Cl)c(C(F)F)c2c(=O)n1-c1cc[nH]n1 [Compound 230, (S)-2,4-diamino-6-((1-(6-chloro-5-(difluoromethyl)-4-oxo-3-(1H-pyrazol-3-yl)-3,4-dihydroquinazolin-2-yl)ethyl)amino)pyrimidine-5-carbonitrile] | 7 | 6 | 1800 | – | – | – | –
11 | Nc1nc(N)c(Cl)c(N[C@H](c2nc3cccc(C(F)F)c3c(=O)n2-c2cc[nH]n2)C2CC2)n1 [Compound 215, (S)-2-(cyclopropyl((2,6-diamino-5-chloropyrimidin-4-yl)amino)methyl)-5-(difluoromethyl)-3-(1H-pyrazol-3-yl)quinazolin-4(3H)-one] | 10 | 6 | 2700 | – | – | – | –
12 | Nc1nc(N)c(Cl)c(N[C@H](c2nc3cccc(C(F)F)c3c(=O)n2-c2cc[nH]n2)C2CCC2)n1 [Compound 132, (S)-2-(cyclobutyl((2,6-diamino-5-chloropyrimidin-4-yl)amino)methyl)-5-(difluoromethyl)-3-(1H-pyrazol-3-yl)quinazolin-4(3H)-one] | 75 | 42 | > 10000 | – | – | – | –
13 | C[C@H](Nc1nc(N)nc(C(F)F)c1C#N)c1nc2cccc(C(F)(F)F)c2c(=O)n1-c1cc[nH]n1 [Compound 178, (S)-2-amino-4-(difluoromethyl)-6-((1-(4-oxo-3-(1H-pyrazol-3-yl)-5-(trifluoromethyl)-3,4-dihydroquinazolin-2-yl)ethyl)amino)pyrimidine-5-carbonitrile] | 34 | 23 | 2240 | – | – | – | –
14 | N#Cc1c(N[C@H](c2nc3c(F)cc(F)cc3c(=O)n2-c2cc[nH]n2)C2CC2)nc(N)nc1C(F)F [Compound 195, (S)-2-amino-4-((cyclopropyl(6,8-difluoro-4-oxo-3-(1H-pyrazol-3-yl)-3,4-dihydroquinazolin-2-yl)methyl)amino)-6-(difluoromethyl)pyrimidine-5-carbonitrile] | 42 | 24 | 3800 | – | – | – | –
15 | CC[C@H](Nc1nc(Cl)nc2[nH]nc(C)c12)c1nc2c(Cl)ccc(Cl)c2c(=O)n1-c1cc[nH]n1 [Compound 88, (S)-5,8-dichloro-2-(1-((6-chloro-3-methyl-1H-pyrazolo[3,4-d]pyrimidin-4-yl)amino)propyl)-3-(1H-pyrazol-3-yl)quinazolin-4(3H)-one] | – | – | – | 4200 | 2700 | – | > 10000
16 | N#Cc1cc(F)cc2c(=O)n(-c3cc[nH]n3)c([C@@H](Nc3nc(N)nc(N)c3Cl)C3CC3)nc12 [Compound 273, (S)-2-(cyclopropyl((2,6-diamino-5-chloropyrimidin-4-yl)amino)methyl)-6-fluoro-4-oxo-3-(1H-pyrazol-3-yl)-3,4-dihydroquinazoline-8-carbonitrile] | 18 | 21 | > 10000 | – | – | – | –
17 | C[C@H](Nc1nc(N)nc(N)c1Cl)c1nc2c(F)ccc(Cl)c2c(=O)n1-c1cn[nH]c1 [Compound 159, (S)-5-chloro-2-(1-((2,6-diamino-5-chloropyrimidin-4-yl)amino)ethyl)-8-fluoro-3-(1H-pyrazol-4-yl)quinazolin-4(3H)-one] | 22 | 3 | 1600 | – | – | – | –
18 | Cc1cc(-n2c([C@H](C)Nc3ncnc(N)c3C#N)nc3cccc(Cl)c3c2=O)n[nH]1 [Compound 7, (S)-4-amino-6-((1-(5-chloro-3-(5-methyl-1H-pyrazol-3-yl)-4-oxo-3,4-dihydroquinazolin-2-yl)ethyl)amino)pyrimidine-5-carbonitrile] | – | – | – | 200 | 43 | – | > 10000
19 | Nc1nc(N)c(Cl)c(N[C@H](c2nc3ccc(F)cc3c(=O)n2-c2cc[nH]n2)C2CC2)n1 [Compound 114, (S)-2-(cyclopropyl((2,6-diamino-5-chloropyrimidin-4-yl)amino)methyl)-6-fluoro-3-(1H-pyrazol-3-yl)quinazolin-4(3h)-one] | – | – | – | 110 | 23 | – | > 10000
20 | C[C@H](Nc1nc(N)nc(N)c1C#N)c1nc2cccc(Cl)c2c(=O)n1-c1c[nH]cn1 [Compound 288, (S)-2,4-diamino-6-((1-(5-chloro-3-(1H-imidazol-4-yl)-4-oxo-3,4-dihydroquinazolin-2-yl)ethyl)amino)pyrimidine-5-carbonitrile] | 2 | 0.7 | 190 | – | – | – | –
21 | C[C@H](Nc1nc(N)nc(N)c1C#N)c1nc2cccc(C(F)(F)F)c2c(=O)n1-c1cn[nH]c1 [Compound 206, (S)-2,4-diamino-6-((1-(4-oxo-3-(1H-pyrazol-4-yl)-5-(trifluoromethyl)-3,4-dihydroquinazolin-2-yl)ethyl)amino)pyrimidine-5-carbonitrile] | 3 | 2 | 120 | – | – | – | –
22 | Cc1c[nH]nc1-n1c([C@@H](Nc2nc(N)nc(N)c2C#N)C2CC2)nc2cccc(Cl)c2c1=O [Compound 247, (S)-2,4-diamino-6-(((5-chloro-3-(4-methyl-1H-pyrazol-3-yl)-4-oxo-3,4-dihydroquinazolin-2-yl)(cyclopropyl)methyl)amino)pyrimidine-5-carbonitrile] | 70 | 4 | 730 | – | – | – | –
23 | C[C@H](Nc1ncnc(N)c1C#N)c1nc2cccc(Cl)c2c(=O)n1-c1cc(C(F)(F)F)[nH]n1 [Compound 6, (S)-4-amino-6-((1-(5-chloro-4-oxo-3-(5-(trifluoromethyl)-1H-pyrazol-3-yl)-3,4-dihydroquinazolin-2-yl)ethyl)amino)pyrimidine-5-carbonitrile] | – | – | – | 730 | 150 | – | > 10000
24 | CC[C@H](Nc1ncnc2scnc12)c1nc2cccc(Br)c2c(=O)n1-c1cc[nH]n1 [Compound 101, (S)-5-bromo-3-(1H-pyrazol-3-yl)-2-(1-(thiazolo[5,4-d]pyrimidin-7-ylamino)propyl)quinazolin-4(3H)-one] | – | – | – | 1 | 0.5 | 960 | –
25 | N#Cc1c(N)nc(N)nc1N[C@H](c1nc2cccc(Cl)c2c(=O)n1-c1cc[nH]n1)C1CCC1 [Compound 128, (S)-2,4-diamino-6-(((5-chloro-4-oxo-3-(1H-pyrazol-3-yl)-3,4-dihydroquinazolin-2-yl)(cyclobutyl)methyl)amino)pyrimidine-5-carbonitrile] | 2 | 2 | 2000 | – | – | – | –
26 | C[C@H](Nc1nc(N)nc(N)c1C#N)c1nc2c(Cl)cc(F)cc2c(=O)n1-c1cc[nH]n1 [Compound 279, (S)-2,4-diamino-6-((1-(8-chloro-6-fluoro-4-oxo-3-(1H-pyrazol-3-yl)-3,4-dihydroquinazolin-2-yl)ethyl)amino)pyrimidine-5-carbonitrile] | 1 | 0.2 | 710 | – | – | – | –
